{"source": "patent US20080274189A1", "about": "“Organic Compounds Comprising a Glycopyrr Onium Salt” (priority 2005, published 2008)", "origin": "cited, not measured here", "details": "aerosol formulation, single administration of a metered dose, asthma"}
{"molecule": "C[N+]1(C)CCC(OC(=O)C(O)(c2ccccc2)C2CCCC2)C1.[Br-]", "note": "(racemic) [glycopyrrolate, 3-[(cyclopentyl-hydroxyphenylacetyl)oxy]-1,1-dimethylpyrrolidinium bromide]", "values": [{"measurement": "duration of bronchodilation", "result": "up to 12 hours"}]}
